Results published in PubChem BioAssay AID1963835 (Molecular Pharmacology Branch, DTP, NCI, 2024).

Tested on: 699152-130-R-J1-PDC complex spheroid viability
Assay: Anticancer human tumor 699152-130-R-J1-PDC patient-derived pancreatic carcinoma cell line growth inhibition [POLQ]
Conditions: for IC50: curve of first compound; for viability, T/C: stronger effect = lower value; active = viability on the fitted dose curve at most 10% of control; inactive = the rest
Outline: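 Growth inhibition in 3D: complex spheroids (tumor PDC, HUVEC, MSC) treated with POLQ inhibitor combinations; where Cmax unknown, highest tested concentration 10 microM, except SN-38 at 1 microM.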

[1] = second compound 0.0316 µM, first compound 0.0316 µM
[2] = second compound 0.0316 µM, first compound 0.1 µM
[3] = second compound 0.0316 µM, first compound 0.316 µM
[4] = second compound 0.0316 µM, first compound 1 µM
[5] = second compound 0.0316 µM, first compound 3.16 µM
[6] = second compound 0.0316 µM, first compound 10 µM
[7] = second compound 0.1 µM, first compound 0.0316 µM
[8] = second compound 0.1 µM, first compound 0.1 µM
[9] = second compound 0.1 µM, first compound 0.316 µM
[10] = second compound 0.1 µM, first compound 1 µM
[11] = second compound 0.1 µM, first compound 3.16 µM
[12] = second compound 0.1 µM, first compound 10 µM
[13] = second compound 0.316 µM, first compound 0.0316 µM
[14] = second compound 0.316 µM, first compound 0.1 µM
[15] = second compound 0.316 µM, first compound 0.316 µM
[16] = second compound 0.316 µM, first compound 1 µM
[17] = second compound 0.316 µM, first compound 3.16 µM
[18] = second compound 0.316 µM, first compound 10 µM
[19] = second compound 1 µM, first compound 0.0316 µM
[20] = second compound 1 µM, first compound 0.1 µM
[21] = second compound 1 µM, first compound 0.316 µM
[22] = second compound 1 µM, first compound 1 µM
[23] = second compound 1 µM, first compound 3.16 µM
[24] = second compound 1 µM, first compound 10 µM
[25] = second compound 3.16 µM, first compound 0.0316 µM
[26] = second compound 3.16 µM, first compound 0.1 µM
[27] = second compound 3.16 µM, first compound 0.316 µM
[28] = second compound 3.16 µM, first compound 1 µM
[29] = second compound 3.16 µM, first compound 3.16 µM
[30] = second compound 3.16 µM, first compound 10 µM
[31] = second compound 10 µM, first compound 0.0316 µM
[32] = second compound 10 µM, first compound 0.1 µM
[33] = second compound 10 µM, first compound 0.316 µM
[34] = second compound 10 µM, first compound 1 µM
[35] = second compound 10 µM, first compound 3.16 µM
[36] = second compound 10 µM, first compound 10 µM
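Note: spheroids exposed to agents for 7 days before viability reading.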
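Throughout, for viability, T/C: percent of DMSO vehicle control viability so 100% = vehicle and 0% = no viable signal.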

C#Cc1c(F)ccc2cc(O)cc(-c3ncc4c(N5CC6CCC(C5)N6)nc(OCC56CCCN5CC(F)C6)nc4c3F)c12 (stereo unspecified) + Cc1cccc(N(C)C(=O)C2C(O)CCN2c2nc(C)cc(C(F)(F)F)c2C#N)c1
inactive: viability, T/C [1] 27.9% | viability, T/C [2] 17.8% | viability, T/C [3] 22.6% | viability, T/C [4] 13.8% | viability, T/C [5] 12.4% | viability, T/C [6] 12.1% | viability, T/C [7] 25.5% | viability, T/C [8] 16.7% | viability, T/C [9] 15.5% | viability, T/C [10] 13.2% | viability, T/C [11] 13.8% | viability, T/C [12] 13.1% | viability, T/C [13] 26.9% | viability, T/C [14] 18.4% | viability, T/C [15] 14.5% | viability, T/C [16] 13.8% | viability, T/C [17] 14.6% | viability, T/C [18] 12.4% | viability, T/C [19] 21.9% | viability, T/C [20] 20.6% | viability, T/C [21] 15.3% | viability, T/C [22] 13.2% | viability, T/C [23] 15.1% | viability, T/C [24] 13.8% | viability, T/C [25] 22.9% | viability, T/C [26] 17.1% | viability, T/C [27] 17.4% | viability, T/C [28] 16.5% | viability, T/C [29] 15.2% | viability, T/C [30] 12.8% | viability, T/C [31] 21.5% | viability, T/C [32] 18.4% | viability, T/C [33] 17.1% | viability, T/C [34] 14.3% | viability, T/C [35] 13.4% | viability, T/C [36] 15.3%
< 0.0316 µM: IC50 (second compound 0.0316 µM) | IC50 (second compound 0.1 µM) | IC50 (second compound 0.316 µM) | IC50 (second compound 1 µM) | IC50 (second compound 3.16 µM) | IC50 (second compound 10 µM)

CCc1cc2c(N3CCc4c(cc(Cn5ccnc5)cc4-c4cn(C)nc4C(F)(F)F)C3=O)ccnc2c(OC)n1 + Nc1ccc(C#CCN(C(=O)Cc2ncc(C(F)(F)F)cc2C(F)(F)F)c2ccc(F)cc2)nn1
inactive: viability, T/C [1] 93.3% | viability, T/C [2] 87.5% | viability, T/C [3] 91.8% | viability, T/C [4] 89.9% | viability, T/C [5] 102% | viability, T/C [6] 99.6% | viability, T/C [7] 88.4% | viability, T/C [8] 90% | viability, T/C [9] 89.4% | viability, T/C [10] 98% | viability, T/C [11] 101% | viability, T/C [12] 100% | viability, T/C [13] 86.2% | viability, T/C [14] 93.5% | viability, T/C [15] 93.6% | viability, T/C [16] 95.4% | viability, T/C [17] 106% | viability, T/C [18] 99.1% | viability, T/C [19] 92.5% | viability, T/C [20] 91.2% | viability, T/C [21] 107% | viability, T/C [22] 94.7% | viability, T/C [23] 106% | viability, T/C [24] 98.8% | viability, T/C [25] 88% | viability, T/C [26] 88.5% | viability, T/C [27] 96.4% | viability, T/C [28] 102% | viability, T/C [29] 107% | viability, T/C [30] 104% | viability, T/C [31] 101% | viability, T/C [32] 102% | viability, T/C [33] 111% | viability, T/C [34] 111% | viability, T/C [35] 109% | viability, T/C [36] 110%
> 10 µM: IC50 (second compound 0.0316 µM) | IC50 (second compound 0.1 µM) | IC50 (second compound 0.316 µM) | IC50 (second compound 1 µM) | IC50 (second compound 3.16 µM) | IC50 (second compound 10 µM)

Cn1ncnc1[C@H]1c2n[nH]c(=O)c3cc(F)cc(c23)N[C@@H]1c1ccc(F)cc1 + Cc1cccc(N(C)C(=O)C2C(O)CCN2c2nc(C)cc(C(F)(F)F)c2C#N)c1
inactive: viability, T/C (second compound 0.0316 µM, first compound 0.000316 µM) 103% | viability, T/C (second compound 0.0316 µM, first compound 0.001 µM) 87.7% | viability, T/C (second compound 0.0316 µM, first compound 0.00316 µM) 95.1% | viability, T/C (second compound 0.0316 µM, first compound 0.01 µM) 88.6% | viability, T/C [1] 99.4% | viability, T/C [2] 81% | viability, T/C (second compound 0.1 µM, first compound 0.000316 µM) 100% | viability, T/C (second compound 0.1 µM, first compound 0.001 µM) 100% | viability, T/C (second compound 0.1 µM, first compound 0.00316 µM) 91.6% | viability, T/C (second compound 0.1 µM, first compound 0.01 µM) 99.3% | viability, T/C [7] 85.3% | viability, T/C [8] 86.6% | viability, T/C (second compound 0.316 µM, first compound 0.000316 µM) 94.8% | viability, T/C (second compound 0.316 µM, first compound 0.001 µM) 97.6% | viability, T/C (second compound 0.316 µM, first compound 0.00316 µM) 86.4% | viability, T/C (second compound 0.316 µM, first compound 0.01 µM) 89.3% | viability, T/C [13] 117% | viability, T/C [14] 73.6% | viability, T/C (second compound 1 µM, first compound 0.000316 µM) 100% | viability, T/C (second compound 1 µM, first compound 0.001 µM) 89.6% | viability, T/C (second compound 1 µM, first compound 0.00316 µM) 95% | viability, T/C (second compound 1 µM, first compound 0.01 µM) 87.2% | viability, T/C [19] 108% | viability, T/C [20] 87.2% | viability, T/C (second compound 3.16 µM, first compound 0.000316 µM) 94.1% | viability, T/C (second compound 3.16 µM, first compound 0.001 µM) 102% | viability, T/C (second compound 3.16 µM, first compound 0.00316 µM) 93.8% | viability, T/C (second compound 3.16 µM, first compound 0.01 µM) 95.7% | viability, T/C [25] 93% | viability, T/C [26] 90.7% | viability, T/C (second compound 10 µM, first compound 0.000316 µM) 104% | viability, T/C (second compound 10 µM, first compound 0.001 µM) 81.8% | viability, T/C (second compound 10 µM, first compound 0.00316 µM) 97.1% | viability, T/C (second compound 10 µM, first compound 0.01 µM) 88.5% | viability, T/C [31] 101% | viability, T/C [32] 83.5%
> 0.1 µM: IC50 (second compound 0.0316 µM) | IC50 (second compound 0.1 µM) | IC50 (second compound 0.316 µM) | IC50 (second compound 1 µM) | IC50 (second compound 3.16 µM) | IC50 (second compound 10 µM)
